Measured values as given in ChEMBL document CHEMBL1201862, “PubChem BioAssay data set” (2004).
Where “and” joins values, the source holds several entries; their conditions need not be identical. Equal entries are not always repeated.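 Grown in 96-well plates, cells were treated for 48 hours with each compound at five concentrations. Insufficient inhibition: endpoint recorded as highest concentration tested. GI50: concentration for 50% inhibition of growth.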 Calls of active or inactive are those of the source. Cut-off read from the data, not from the text of the source: active = GI50 up to about 1.1 µM and inactive = higher.

Key:
Test in all cases: growth of human tumour cells (NCI), 48 h
KM12 = tested on: KM12
TK-10 = tested on: TK-10
RPMI-8226 = tested on: RPMI-8226
SK-MEL-2 = tested on: SK-MEL-2
CAKI-1 = tested on: CAKI-1
SK-MEL-28 = tested on: SK-MEL-28
HOP-62 = tested on: HOP-62
HCT-116 = tested on: HCT-116
K562 = tested on: K562
U-251 = tested on: U-251
OVCAR-3 = tested on: OVCAR-3
HL-60 = tested on: HL-60
SN12C = tested on: SN12C
OVCAR-5 = tested on: OVCAR-5
UO-31 = tested on: UO-31
SK-OV-3 = tested on: SK-OV-3
SF-268 = tested on: SF-268
NCI-H460 = tested on: NCI-H460
MCF7 = tested on: MCF7
CCRF-CEM = tested on: CCRF-CEM

Measured: GI50

Clc1ccc(-c2nn3c(COc4cccc(OCc5nnc6sc(-c7ccc(Cl)cc7)nn56)c4)nnc3s2)cc1
inactive: KM12 29.5 µM | TK-10 36.8 µM | RPMI-8226 22.1 µM | SK-MEL-2 58.5 µM | CAKI-1 22 µM | SK-MEL-28 7.78 µM | HOP-62 56.6 µM | HCT-116 18.6 µM | K562 24.4 µM | U-251 24.3 µM | OVCAR-3 6.78 µM | HL-60 21.5 µM | SN12C 12.6 µM | OVCAR-5 28.6 µM | UO-31 19.5 µM | SK-OV-3 51.3 µM | SF-268 21.7 µM | NCI-H460 31 µM | MCF7 14.1 µM

COC(=O)C(=O)C(C(=O)C(=O)Nc1ccccc1C(=O)OC)c1nc2ccc(C(=O)c3ccccc3)cc2nc1O (stereo not drawn)
inactive: KM12 21.7 µM | TK-10 > 100 µM | RPMI-8226 51.9 µM | SK-MEL-2 > 100 µM | CAKI-1 30.5 µM | SK-MEL-28 90.2 µM | HOP-62 55 µM | HCT-116 > 100 µM | K562 36.1 µM | U-251 > 100 µM | OVCAR-3 > 100 µM | HL-60 41 µM | SN12C 64.7 µM | OVCAR-5 > 100 µM | UO-31 31.7 µM | SK-OV-3 60.7 µM | SF-268 56.9 µM | NCI-H460 51.3 µM | MCF7 66.5 µM

CCCCCCN(C(=O)Oc1ccccc1)C(C#N)c1ccccc1 (stereo not drawn)
inactive: KM12 > 100 µM | TK-10 > 100 µM | RPMI-8226 > 100 µM | SK-MEL-2 > 100 µM | CAKI-1 > 100 µM | SK-MEL-28 > 100 µM | HOP-62 > 100 µM | HCT-116 > 100 µM | K562 > 100 µM | U-251 > 100 µM | OVCAR-3 > 100 µM | HL-60 > 100 µM | SN12C > 100 µM | OVCAR-5 > 100 µM | CCRF-CEM > 100 µM | UO-31 > 100 µM | SK-OV-3 > 100 µM | SF-268 > 100 µM | MCF7 > 100 µM

CC(=O)NC1C(CO)O[C@@H]2OC(C)(C)O[C@H]12 (stereo partly drawn)
inactive: KM12 > 100 µM | TK-10 > 100 µM | RPMI-8226 > 100 µM | SK-MEL-2 > 100 µM | CAKI-1 > 100 µM | SK-MEL-28 > 100 µM | HOP-62 > 100 µM | HCT-116 > 100 µM | U-251 > 100 µM | OVCAR-3 > 100 µM | HL-60 > 100 µM | SN12C > 100 µM | OVCAR-5 > 100 µM | CCRF-CEM > 100 µM | UO-31 > 100 µM | SF-268 > 100 µM | NCI-H460 > 100 µM | MCF7 > 100 µM

CN(C)CCCNC(=O)c1cc(NC(=O)c2cc(NC(=O)[C@@H]3C[C@H]3C(=O)Nc3cc(C(=O)Nc4cc(C(=O)NCCCN(C)C)n(C)c4)n(C)c3)cn2C)cn1C
inactive: KM12 > 100 µM | RPMI-8226 > 100 µM | SK-MEL-2 > 100 µM | CAKI-1 > 100 µM | SK-MEL-28 > 100 µM | HOP-62 > 100 µM | HCT-116 > 100 µM | K562 > 100 µM | U-251 > 100 µM | HL-60 > 100 µM | SN12C > 100 µM | OVCAR-5 > 100 µM | CCRF-CEM > 100 µM | SF-268 > 100 µM | NCI-H460 > 100 µM | MCF7 > 100 µM

CC(C)[C@@H]1NC(=O)[C@H]2N=C(O[C@@H]2C)[C@@H]2CCCN2C(=O)[C@H](Cc2ccccc2)NC(=O)[C@@H]2CSC(=N2)[C@@H](Cc2ccccc2)NC(=O)[C@@H]2CSC1=N2
inactive: KM12 25.6 µM | TK-10 > 50 µM | RPMI-8226 9.29 µM | SK-MEL-2 > 50 µM | CAKI-1 > 50 µM | SK-MEL-28 > 50 µM | HOP-62 > 50 µM | HCT-116 > 50 µM | K562 9.38 µM | U-251 > 50 µM | OVCAR-3 47 µM | HL-60 7.46 µM | SN12C > 50 µM | OVCAR-5 > 50 µM | CCRF-CEM 16.3 µM | UO-31 > 50 µM | SK-OV-3 > 50 µM | SF-268 > 50 µM | MCF7 18.9 µM

COC(=O)[C@H](Cc1ccccc1)NC(=O)[C@H](Cc1ccccc1)NC(=O)CN1C(=O)[C@@H]2C3C=CC(C3)[C@@H]2C1=O
inactive: KM12 20.7 µM and 17.1 µM | TK-10 18.9 µM and 17.5 µM | RPMI-8226 21.6 µM and 14.9 µM | SK-MEL-2 18.2 µM and 17.9 µM | CAKI-1 16.7 µM and 18.6 µM | SK-MEL-28 19.3 µM and 18.1 µM | HOP-62 19.7 µM and 18.7 µM | HCT-116 16.6 µM and 14.3 µM | U-251 16.4 µM and 17.6 µM | OVCAR-3 16.6 µM and 18 µM | HL-60 11 µM | SN12C 18.2 µM and 16.7 µM | OVCAR-5 22 µM and 19.8 µM | UO-31 23.3 µM and 15.7 µM | SK-OV-3 16.7 µM | SF-268 13.2 µM and 17.7 µM | NCI-H460 21.2 µM and 20.6 µM | MCF7 18.5 µM and 17.8 µM
